From patent publication US9617262B2, “Antibacterial cyclopental[C]pyrrole substituted 3,4-dihydro-1H-[1,8]naphthyridinones” (Janssen Sciences Ireland UC, priority 2011, dated 2017) come the findings set out here.

The structures appear in SMILES notation. ≈ marks a conversion by molar mass, not a printed value.

Data set [1] addresses S. aureus ATCC 29213 FabI (Staphylococcus aureus (strain MRSA252), UniProt Q6GI75). Nature of the data set: Staphylococcus aureus FabI enzyme inhibition assay. The class given is biochemical. The conditions noted are these: pH 6.5, 30 minutes at room temperature. As to the method:
FabI enzyme inhibition assays were carried out in half-area, 384-well microtitre plates. Compounds were evaluated in 40-μl assay mixtures containing 100 mM NaADA, pH 6.5 (ADA=N-[2-acetamido]-2iminodiacetic acid), 250 μM crotonoyl-CoA, 625 μM NADH and 50 μg/ml S. aureus ATCC 29213 FabI. Inhibitors were typically varied over the range of 50 to 0.39 μM. The reaction mixtures were incubated for 30 minutes at room temperature and the reaction was stopped by adding 200 mM Tris buffer (pH 9.0) to create a pH-shift. The consumption of NADH was monitored by measuring the change in absorbance at […]. By comparing sample readings to those of negative (absence of compound) and positive (absence of enzyme) controls, the percent inhibition of enzymatic activity of the compounds was determined. A best-fit curve is fitted by a minimum of squares method. From this an IC50-value (expressed in μg/ml), resulting in 50% inhibition of enzymatic activity, was obtained.

Data set [2] deals with Staphylococcus aureus ATCC 29213. Nature of the data set: Antibacterial susceptibility testing: IC90 determination (STA). Format: cell-based. To be noted: STA ATCC 29213, 90% inhibitory concentration for bacterial growth. Here is the method:
(§1) The following bacteria were used: Staphylococcus aureus ATCC 29213, methicillin-resistant Staphylococcus aureus (MRSA) ATCC 700788 and Escherichia coli ATCC 35218. The bacteria used in this study were grown overnight in flasks containing 100 ml Mueller-Hinton broth (Difco cat. nr. 0757-17) in sterile de-ionized water, with shaking, at 37° C. Stocks were store at −70° C. until use.
(§2) Bacteria were incubated on a tryptic soy agar plate containing 5% sheep blood (Becton Dickinson cat. nr. 254053) for 18-24 hours at 35° C. in aerobic conditions (first passage). For the second passage, fresh Mueller-Hinton broth is inoculated with 5-10 colonies and grown overnight at 35° C. until turbidity (reaching log-phase) in aerobic conditions is reached. The bacterial suspension is then adjusted to 0.5 McFarland density and further diluted 1:100 in Mueller Hinton broth medium. This is used as inoculum.
(§3) MIC assays were performed by the broth microdilution method in a 96-well format (flat-bottom microtitre plates) with a final volume of 0.1 ml Mueller Hinton broth containing two-fold serial dilutions of compounds and inoculated with 5×10^5 CFU/ml of bacteria (standard inoculum size according to CLSI guidelines). Inhibitors are typically varied over the range of 63 to 0.49 μM. The final DMSO concentration in the assay was 1.25% (maximum tolerable DMSO concentration=6%). In the assays where the effect of human serum on the activity of the compounds against S. aureus was tested, human serum was added at a final concentration of 10%. The plates were incubated at 35° C. for 16-20 hours. At the end of incubation the bacterial growth was quantified fluorometrically. For this, resazurin was added to all wells and the plates were re-incubated. The incubation time is dependent on the type of bacteria. A change in color from blue to pink indicated the growth of bacteria. The fluorescence was read in computer-controlled fluorometer (Fluoroskan Ascent FL, Labsystems) at an excitation wavelength 540 nm and an emission wavelength of 590 nm. The % growth inhibition achieved by the compounds was calculated according to standard methods. The IC90 (expressed in μg/ml) was defined as the 90% inhibitory concentration for bacterial growth. A panel of reference compounds were simultaneously tested for QC approval.

The test system of data set [3] is S. aureus. Nature of the data set: Antibacterial susceptibility testing: IC90 determination with 10% human serum (STA + 10% HS). The conditions noted are these: human serum at a final concentration of 10%. Format: cell-based, Staphylococcus aureus. As to the method: as §1, §2, §3
The results are depicted in the table D2 below (STA+10% HS).

In data set [4] the test system is Human HelaM cells. Nature of the data set: Cytotoxicity MTT assay (TOX HELAM). To be noted: 72 hours. The class given is cell-based. As to the method: Cytotoxicity of the compounds was evaluated using the MTT assay. Human HelaM cells grown in 96-well plates were exposed to serial dilutions of the tested compounds (final volume of 0.2 ml) and incubated for 72 hours at 37° C. and 5% CO2. Inhibitors are typically varied over the range of 25 to 0.8 μM. The final DMSO concentration in the assay is 0.5%. MTT (3-(4,5-Dimethylthiazol-2-yl)-2,5-diphenyltetrazolium bromide, a tetrazole) was added and reduced to purple formazan only in living cells. Solubilization of the formazan crystals was achieved by adding 100 μl 2-propanol. Cell viability was determined by measuring the absorbance of the reduced formazan, giving a purple color, at 540 nm and 690 nm. The absorbance measured at 690 nm was automatically subtracted from the absorbance at 540 nm, to eliminate the effects of non-specific absorption. The percent cytotoxicity achieved by the compounds was calculated according to standard methods. Cytotoxicity is reported as CC50, the concentration that causes a 50% reduction in cell viability.
The results are depicted in the table D2 below (TOX HELAM).

In data set [5] the test system is Escherichia coli ATCC 25922; reference strain. Nature of the data set: Antimicrobial spectrum, broth microdilution MIC. Format: cell-based. The conditions noted are these: E. coli ATCC 25922. Here is the method:
(§4) Minimum Inhibitory Concentrations (MICs) were determined in accordance with the Clinical and Laboratory Standards Institute (CLSI) methodology against aerobic bacteria (CLSI M07-A8) (see Clinical and Laboratory Standards Institute. 2009. Methods for dilution antimicrobial susceptibility tests for bacteria that grow aerobically. CLSI document M07-A8, Vol. 29, No. 2.) by the broth microdilution method with cation-adjusted Mueller-Hinton broth (CA-MHB) medium for the majority of organisms, except for Haemophilus influenza, where Haemophilis test medium (HTM) broth was used. Descriptions of the individual organisms can be found in the table. Where possible, ATCC standard strains were tested.
(§5) The inoculum density for the susceptibility testing was standardized to give a final inoculum of approximately 5×10^5 CFU/mL.
(§6) Stock solutions of the compounds were prepared in DMSO at concentrations of 1 mg/mL. Linezolid was prepared in DMSO at a concentration of 2 mg/mL. Stock solutions of all compounds were diluted into CA-MHB to give a range of two-fold dilutions, depending upon the sensitivity of the organism being tested.

Data set [6] has as its system Escherichia coli Tol C mutant. The experiment in a line: Antimicrobial spectrum, broth microdilution MIC. The class given is cell-based. To be noted: E. coli tolC mutant. As to the method: as §4, §5, §6
In general terms: Dilution methods test growth across graded concentrations, often in twofold steps.

The test system of data set [7] is Staphylococcus aureus ATCC 29213; reference strain MSSA. The experiment in a line: Antimicrobial spectrum, broth microdilution MIC. Format: cell-based. The conditions noted are these: S. aureus ATCC 29213. Here is the method:
as §4, §5, §6

The subject of data set [8] is Staphylococcus aureus ATCC 43300; reference strain MRSA. The experiment in a line: Antimicrobial spectrum, broth microdilution MIC. The class given is cell-based. The conditions noted are these: S. aureus ATCC 43300. Here is the method: as §4, §5, §6
Data set [9] has as its system Staphylococcus aureus NRS119; LZD-R. The experiment in a line: Antimicrobial spectrum, broth microdilution MIC. Format: cell-based. To be noted: S. aureus NRS119. As to the method: as §4, §5, §6
Data set [10] relates to Staphylococcus aureus NRS120; LZD-R. Nature of the data set: Antimicrobial spectrum, broth microdilution MIC. The class given is cell-based. The conditions noted are these: S. aureus NRS120. As to the method: as §4, §5, §6
In data set [11] the test system is Staphylococcus aureus NRS121; LZD-R. Nature of the data set: Antimicrobial spectrum, broth microdilution MIC. The class given is cell-based. The conditions noted are these: S. aureus NRS121. Here is the method: as §4, §5, §6
Data set [12] can be described thus: In vivo pharmacokinetic and oral bioavailability. To be noted: male Swiss mice. As to the method:
The in vivo pharmacokinetics and oral bioavailability of the compound of the examples was/is investigated in male Swiss mice (fed) following single intravenous (i.v.) bolus and oral (p.o.) administration. For the i.v. and p.o. solution formulations, the compound was/is dissolved in a 20% HP-β-CD solution. The pH of the formulations was/is around pH 4. All i.v. formulations were isotonic.

With `O=C1CCc2cc(/C=C/C(=O)N3CC4C=C(c5ccccc5)CC4C3)cnc2N1` (stereo not drawn) [compound 1], the “FabI IC50” value in [1] was 0.32 µg/mL. In data set [2], the “STA (361.159) IC90” value stood at 0.09 µg/mL. For the same compound, the “STA + 10% HS (361.169) IC90” value in data set [3] came to 0.17 µg/mL. Further, in data set [4], the “TOX HELAM (222.125) CC50” value is greater than 3.8547 µg/mL. In addition, the MIC90 – broadly, an inhibitory concentration at the 90% level, which refers to growth in some studies and to a panel of isolates in others – in data set [5] was greater than 32 µg/mL; in data set [6], “≦0.03 μg/ml”; in data set [7], 0.016 µg/mL (≈ 0.0415 µM); in data set [8] it was 0.016 µg/mL (≈ 0.0415 µM); in data set [9] it was 0.03 µg/mL (≈ 0.0778 µM); in [10] it was 0.016 µg/mL (≈ 0.0415 µM). Besides, the MIC90 in data set [11] is 0.016 µg/mL (≈ 0.0415 µM). For the same compound, the AUC0-inf in data set [12] (i.v. 2.5 mg/kg) was 7074 ng·h/mL; in data set [12] (p.o. 5 mg/kg) it was 12158 ng·h/mL. The “Half life (t1/2)” value amounted to 2.9 h in data set [12] (i.v. 2.5 mg/kg) and 3.1 h in data set [12] (p.o. 5 mg/kg). In addition, the “Plasma clearance Cl” value in [12] (i.v. 2.5 mg/kg) was 5.83 mL/min/kg. In data set [12] (i.v. 2.5 mg/kg), the Vdz is 1.5 L/kg. The compound further came in with a C0 in data set [12] (i.v. 2.5 mg/kg, 20% HP-β-CD solution) of 2921 ng/mL. The Oral bioavailability in [12] (p.o. 5 mg/kg vs i.v. 2.5 mg/kg) worked out at 86%. For the same compound, the peak concentration (Cmax) (usually the highest concentration seen after dosing) in data set [12] (p.o. 5 mg/kg) is reported as 1720 ng/mL. For the same compound, the Tmax (usually the time from dosing to the highest level) in data set [12] (p.o. 5 mg/kg) stood at 2.0 h.
